Test results: patent US4877893A, “Process for the preparation of 2-(O-alkyl)-2-thio-1,3,2-oxathiophospholanes” (priority 1987, dated 1989)

Key:
[1] = tested on: Fusarium sp. and Alternaria sp.; experiment: Soil disinfection test, shoot up %; type: in vivo, cotton; conditions: 1 kg of active ingredient/ha; soil disinfectant granules; untreated control = 100
Procedure: (§1) The soil is watered and admixed with a Fusarium sp. and Alternaria sp. suspension. In the infected soil cotton and sugar beet seeds are sown, namely 10 seeds per replicate. Eight replicates are used in the test. The soil is treated with 2-(0-2'-chloroethyl)-2-thio-1,3,2-oxathiophospholane (Compound No. 1) in a dose of 1 kg of active ingredient.ha^- 1. Treatment is carried out with soil disinfectant granules prepared in an analogous manner to Example 33. Evaluation is carried out by determining the shoot up % related to the untreated control.

[2] = tested on: sugar beet seeds strongly infected by pathogens; experiment: Seed dressing test, shoot up %; type: in vivo; conditions: related to untreated control = 100
Excerpt: (§2) In this test cotton, maize, sunflower and sugar beet seeds strongly infected by pathogens and treated with different doses of 2-(0-2'-chloroethyl)-2-thio-1,3,2-oxathiophospholane (Compound No. 1) are used. The doses amount to 50, 100 and 200 g of active ingredient, respectively. As reference seeds being either untreated or treated with Mancozeb (manganese +zinc/-ethylene bis-dithiocarbamte) 0.8 kg/t +Benomyl (1-butyl carbamoyl-benzimidazole-2-methylcarbamate) 0.5 kg/t are used.
(§3) Compound No. 1 of the present invention is formulated as 50 WP in an analogous manner to Example 31. The test is carried out in six replicates, by sowing 10 seeds in each replicate. The results are evaluated by determining the shoot up % related to the control.

[3] = tested on: sunflower seeds strongly infected by pathogens; experiment: Seed dressing test, shoot up %; type: in vivo; conditions: related to untreated control = 100
Excerpt: as §2, §3

[4] = tested on: cotton seeds strongly infected by pathogens; experiment: Seed dressing test, shoot up %; type: in vivo; conditions: related to untreated control = 100
Excerpt: as §2, §3

[5] = tested on: maize seeds strongly infected by pathogens; experiment: Seed dressing test, shoot up %; type: in vivo; conditions: related to untreated control = 100
Excerpt: as §2, §3

Sclerotinia sclerotinia = experiment: Fungicidal effect on infected agar nutrient media, colony diameter; type: cell-based; conditions: 3rd day after treatment, untreated control 41.7
Procedure: Agar nutrient media (Diameter 70 MM, thickness 10 mm) infected by Sclerotonia sclerotinia suspension are treated with 20 EC formulations prepared according to Example 27 and comprising 1, 10, 100 and 1000 ppm, respectively of the active ingredient of the Formula I. The fungicidal effect of the compositions is evaluated on the 3rd day after treatment by measuring the diameter of the Fungi colonies.

Alternaria sp. = experiment: Fungicidal effect on paprika seeds on agar, colony diameter; type: cell-based; conditions: 5th day, control 36.62
Procedure: (§4) The test is carried out on paprika seeds placed on agar nutrient medium and impregnated with phytopathogenic Fungi (Alternaria sp., Penicillium sp., Sclerotinia sp.). The paprika seeds are treated with various doses of 2-(0-2'-chloroethyl)-2-thio-1,3,2-oxathiophospholane (Compound No. 1 of Table I) and the known fungicidal agent Aliette, respectively.
(§5) The concentration data relate to the active ingredient. Treatment is carried out by using a 20 EC prepared according to Example 27. Evaluation is carried out on the 5th day after treatment by measuring the diameter of the Fungi colonies.

Sclerotinia sp. = experiment: as above; type: cell-based; conditions: 5th day, control 41.50
Procedure: as §4, §5

Penicillium sp. = experiment: as above; type: cell-based; conditions: 5th day, control 23.35
Procedure: as §4, §5

Penicillium cyclopium = experiment: Fungicidal effect on infected agar nutrient media, colony diameter; type: cell-based; conditions: 7th day after treatment, untreated 26.5
Outline: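 Agar media (70 mm diameter, 10 mm thick) infected with Penicillium cyclopium were treated with EC formulations at 1, 10, 100 and 1000 ppm active ingredient. Fungal colony diameter was measured on day 7 after treatment.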

Alternaria tenuis = experiment: as above; type: cell-based; conditions: 5th day after treatment, untreated control 36.8
Outline: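 Agar media (70 mm diameter, 10 mm thick) infected with Alternaria tenuis, treated with EC formulations at 1, 10, 100 and 1000 ppm active ingredient. Fungicidal effect read on day 5 after treatment as fungal colony diameter.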

[6] = tested on: Fusarium sp. and Alternaria sp.; experiment: Soil disinfection test, shoot up %; type: in vivo, sugar beet; conditions: 1 kg of active ingredient/ha; soil disinfectant granules; untreated control = 100
Procedure: as §1

**Q.** With `S=P1(OCCCl)OCCS1` (centres unmarked) [Compound 1, 2-(O-2'-chloroethyl)-2-thio-1,3,2-oxathiophospholane] as the compound, how does the “Shoot up % Cotton” value [1] read?
**A.** The value was 239%.

**Q.** What about the “Shoot up % Sugar beet” value ([2]; 50 g/t) of the same compound?
**A.** Its value is 205%.

**Q.** And the “Shoot up % Sugar beet” value ([2]; 100 g/t)?
**A.** Its value is 312%.

**Q.** And the “Shoot up % Sugar beet” value ([2]; 200 g/t)?
**A.** The value was 156%.

**Q.** What about the “Shoot up % Sunflower” value ([3]; 50 g/t) of the same compound?
**A.** The value was 132%.

**Q.** What about the “Shoot up % Sunflower” value ([3]; 100 g/t) of the same compound?
**A.** Its value is 154%.

**Q.** And the “Shoot up % Sunflower” value ([3]; 200 g/t)?
**A.** The value was 129%.

**Q.** What about the “Shoot up % Cotton” value ([4]; 50 g/t) of the same compound?
**A.** Its value is 146%.

**Q.** What about the “Shoot up % Cotton” value ([4]; 100 g/t) of the same compound?
**A.** The value was 218%.

**Q.** And the “Shoot up % Cotton” value ([4]; 200 g/t)?
**A.** The value was 255%.

**Q.** And the “Shoot up % Maize” value ([5]; 50 g/t)?
**A.** Its value is 121%.

**Q.** And the “Shoot up % Maize” value ([5]; 100 g/t)?
**A.** The value was 133%.

**Q.** What about the “Shoot up % Maize” value ([5]; 200 g/t) of the same compound?
**A.** Its value is 125%.

**Q.** What about the “Diameter of colony (mm)” value (Sclerotinia sclerotinia; 1 ppm) of the same compound?
**A.** Its value is 39.4 mm.

**Q.** What about the “Diameter of colony (mm)” value (Sclerotinia sclerotinia; 10 ppm) of the same compound?
**A.** Its value is 31.7 mm.

**Q.** What about the “Diameter of colony (mm)” value (Sclerotinia sclerotinia; 100 ppm) of the same compound?
**A.** Its value is 3.5 mm.

**Q.** And the “Diameter of colony (mm)” value (Sclerotinia sclerotinia; 1000 ppm)?
**A.** The value was 0 mm.

**Q.** What about the “Diameter of Colony (MM) Alternaria” value (Alternaria sp.; 1 ppm) of the same compound?
**A.** Its value is 33.50 MM.

**Q.** And the “Diameter of Colony (MM) Alternaria” value (Alternaria sp.; 5 ppm)?
**A.** Its value is 32.25 MM.

**Q.** What about the “Diameter of Colony (MM) Alternaria” value (Alternaria sp.; 10 ppm) of the same compound?
**A.** The value was 25.87 MM.

**Q.** And the “Diameter of Colony (MM) Alternaria” value (Alternaria sp.; 50 ppm)?
**A.** The value was 16.75 MM.

**Q.** And the “Diameter of Colony (MM) Alternaria” value (Alternaria sp.; 100 ppm)?
**A.** The value was 7.62 MM.

**Q.** And the “Diameter of Colony (MM) Alternaria” value (Alternaria sp.; 1000 ppm)?
**A.** Its value is 0 MM.

**Q.** What about the “Diameter of Colony (MM) Sclerotinia” value (Sclerotinia sp.; 1 ppm) of the same compound?
**A.** Its value is 39.37 MM.

**Q.** And the “Diameter of Colony (MM) Sclerotinia” value (Sclerotinia sp.; 5 ppm)?
**A.** Its value is 40.62 MM.

**Q.** What about the “Diameter of Colony (MM) Sclerotinia” value (Sclerotinia sp.; 10 ppm) of the same compound?
**A.** Its value is 31.75 MM.

**Q.** And the “Diameter of Colony (MM) Sclerotinia” value (Sclerotinia sp.; 50 ppm)?
**A.** Its value is 10.62 MM.

**Q.** And the “Diameter of Colony (MM) Sclerotinia” value (Sclerotinia sp.; 100 ppm)?
**A.** Its value is 3.50 MM.

**Q.** And the “Diameter of Colony (MM) Sclerotinia” value (Sclerotinia sp.; 1000 ppm)?
**A.** Its value is 0 MM.

**Q.** And the “Diameter of Colony (MM) Penicillium” value (Penicillium sp.; 1 ppm)?
**A.** The value was 22.20 MM.

**Q.** What about the “Diameter of Colony (MM) Penicillium” value (Penicillium sp.; 5 ppm) of the same compound?
**A.** The value was 20.05 MM.

**Q.** What about the “Diameter of Colony (MM) Penicillium” value (Penicillium sp.; 10 ppm) of the same compound?
**A.** Its value is 20.05 MM.

**Q.** What about the “Diameter of Colony (MM) Penicillium” value (Penicillium sp.; 50 ppm) of the same compound?
**A.** The value was 19.40 MM.

**Q.** What about the “Diameter of Colony (MM) Penicillium” value (Penicillium sp.; 100 ppm) of the same compound?
**A.** The value was 8.12 MM.

**Q.** What about the “Diameter of Colony (MM) Penicillium” value (Penicillium sp.; 1000 ppm) of the same compound?
**A.** The value was 0 MM.

**Q.** And the “Diameter of colony (mm)” value (Penicillium cyclopium; 1 ppm)?
**A.** Its value is 23.2 mm.

**Q.** And the “Diameter of colony (mm)” value (Penicillium cyclopium; 10 ppm)?
**A.** Its value is 20.0 mm.

**Q.** What about the “Diameter of colony (mm)” value (Penicillium cyclopium; 100 ppm) of the same compound?
**A.** Its value is 8.0 mm.

**Q.** What about the “Diameter of colony (mm)” value (Penicillium cyclopium; 1000 ppm) of the same compound?
**A.** Its value is 0 mm.

**Q.** And the “Diameter of colony (mm)” value (Alternaria tenuis; 1 ppm)?
**A.** Its value is 33.5 mm.

**Q.** What about the “Diameter of colony (mm)” value (Alternaria tenuis; 10 ppm) of the same compound?
**A.** Its value is 25.8 mm.

**Q.** And the “Diameter of colony (mm)” value (Alternaria tenuis; 100 ppm)?
**A.** Its value is 7.6 mm.

**Q.** What about the “Diameter of colony (mm)” value (Alternaria tenuis; 1000 ppm) of the same compound?
**A.** The value was 0 mm.

**Q.** What about the “Shoot up % Sugar beet” value [6] of the same compound?
**A.** The value was 346%.
